From patent US20110045102A1, “Cancer chemotherapy compositions comprising PI3K pathway modulators and triptolide” (priority 2005, published 2011)

Legend:
OCC1-SEAP-12 cells = experiment: Growth assay, [3H] thymidine incorporation (Example III); type: cell-based, human; details: LY294002, 18h treatment
Protocol: Cell proliferation was analyzed by determining the amount of [^3H] thymidine incorporation Into newly synthesized DNA. The OCC1-SEAP-12 cells were plated in 24 well plates in Ham's F-12 medium plus 10% BCS and allowed to reach 50 to 70% confluence. Following a 48 hr serum starvation, the culture medium was changed to Dulbecco's Modified Eagle Medium (DMEM) plus 0.1% BSA and 0.1% BCS containing either vehicle control or carboplatin (0-100 μg/ml) alone, or in combination with LY294002 (0-20 μM). Treatments were removed after 18h and cells were incubated for 4 hr in medium containing 5 μCi/ml of [^3H] thymidine. Medium was removed and cells were disrupted by sonication in phosphate buffered saline (PBS). An aliquot of the sonicated solution of PBS was loaded onto a DEAE filtration plate (Millipore, Bedford, Mass.), and individual filters with bound DNA were collected for scintillation counting. Data was normalized to total DNA per well and was determined by a SYBR green fluorescent assay (Nilsson E E, Westfall S D, McDonald C, Ligon T, Sadler-Riggleman I, Skinner M K. An in vivo mouse reporter gene (human secreted alkaline phosphatase) model to monitor ovarian tumor growth and response to therapeutics. Cancer Chemother Pharmacol 2002; 49(2):93-100).

Akt = experiment: Western blot for Akt phosphorylation (Example III); type: cell-based, human; details: 6 hr and 24 hr; LY294002 10 (FIG. 18 legend: mM), carboplatin 50
Protocol: The OCC1-SEAP-12 cells were grown to 80% confluence. […] […] Total cell lysates were subjected to SDS polyacrylamide gel electrophoresis 9 page) and transferred to PVDF membranes (Millipore, Bedford, Mass.). Membranes were immunoblotted with antibodies to both the phosphorylated and non-phosphorylated forms of […] (Cell Signaling Technology, Beverly, Mass.), or alternatively, with antibodies to cleaved and full length caspase-3 (Cell Signaling Technology, Beverly, Mass.).

caspase 3 = experiment: Western blot for active caspase 3 (Example III); type: cell-based, human; details: LY294002 10 μM, carboplatin 50 μg/ml
Protocol: The OCC1-SEAP-12 cells were grown to 80% confluence. Cultures were incubated in DMEM plus 0.1% bovine serum albumin (BSA) and 0.1% BCS to which either vehicle control, carboplatin (0-50 μg/ml), LY294002 (0-20 μM) or combinations of these treatments. Following 24, 48 or 72 hr cells were lysed with sample buffer (62.5 mM Tris-HCl, pH 6.8, 2% SDS, 5% glycerol, […], 0.5% β-mercaptoethanol). Total cell lysates were subjected to SDS polyacrylamide gel electrophoresis 9 page) and transferred to PVDF membranes (Millipore, Bedford, Mass.). Membranes were immunoblotted with antibodies to both the phosphorylated and non-phosphorylated forms of […] (Cell Signaling Technology, Beverly, Mass.), or alternatively, with antibodies to cleaved and full length caspase-3 (Cell Signaling Technology, Beverly, Mass.).

[1] = system: OCC1-SEAP-12 ovarian cancer cells; experiment: Cell survival by DNA content of culture wells (Example III); type: cell-based, human
Protocol: Cell survival was assessed as cell number remaining in culture following exposure to treatments. The DNA content of individual culture wells was used as an indication of cell number. Cells plated in 24 well culture plates were allowed to approach confluence (80%) in Ham's F-12 medium plus 10% BCS. […] Media aliquots were taken when appropriate for SEAP analysis. The DNA was measured fluorometrically as previously described (Nilsson […], Ligon […]. An in vivo mouse reporter gene (human secreted alkaline phosphatase) model to monitor ovarian tumor growth and response to therapeutics. Cancer Chemother Pharmacol 2002; 49(2):93-100). Briefly, the fluorescence of aliquots of sonicated cell suspensions into which SYBR Green I fluorescent dye (Molecular Probes, Eugene Oreg.) had been incorporated, was measured.

[2] = system: OCC1-SEAP-12 ovarian cancer cells; type: in vivo
Protocol: Athymic nude mice were obtained and inoculated intraperitoneally with OCC1-SEAP-12 cells as described above in Examples I and II. Animals received injections of either vehicle control (PBS containing 25% DMSO), or carboplatin (60 mg/kg) alone, or in combination with LY294002 (50 mg/kg) every other day for 6 days. Blood samples were collected into capillary tubes from saphenous vein lancings at regular intervals during and following treatments. Capillary tubes were centrifuged, and the plasma samples were frozen (−20° C.), until the time of SEAP assay. The Washington State University Animal Care and Use Committee approved all procedures.
Blood plasma and cell culture medium samples were assayed for SEAP activity using the Great EscAPe SEAP fluorescence detection kit (Clontech Laboratories, Palo Alto, Calif.) as described above in Examples I and II. Blood plasma samples were diluted 1:100 prior to the assay to bring values within the linear range of the standard curve. The intraassay and interassay coefficients of variation were 2.5% and 18.8%, respectively.

[3] = system: OCC1-SEAP-12 ovarian cancer cells; details: LY294002 alone (Westfall and Skinner 2005); cited from earlier work
[4] = system: OCC1-SEAP ovarian cancer cells; experiment: Cell survival by DNA content of culture wells (Example II); type: cell-based, human; details: 48 hours; triptolide 100 ng/ml, carboplatin 50 (FIG. 8 legend: mg/ml)
Protocol: Cell survival was assessed as the number of cells remaining in culture, following exposure to treatments. The DNA content of individual culture wells was used as an indication of cell number. Cells plated in 24 well culture plates were allowed to approach confluence (80%) in Ham's F-12 medium plus 10% BCS. Cultures were then incubated in DMEM, plus 0.1% BSA and 0.1% BCS, in the presence of vehicle control, carboplatin (0-100 μg/ml), Triptolide (100 ng/ml) or a combination of these for 24 to 96 hrs. Media aliquots were taken when appropriate for SEAP analysis. The DNA was measured fluorometrically, as described above, in Example I. Briefly, the fluorescence of an aliquot of sonicated cell suspension, into which SYBR Green I fluorescent dye (Molecular Probes, Eugene, Oreg.), had been incorporated was measured.

OCC1-SEAP cell cultures = experiment: DNA fragmentation (laddering) on agarose gel (Example II); type: cell-based, human; details: 48 hr; TPL 100 ng/ml, carboplatin 50 μg/ml
Protocol: Following 48 h to 72 h treatment incubations, cells were suspended into culture medium and pelleted in tubes. DNA was isolated from collected cells using a Puregene™ DNA isolation kit (Gentra Systems, Minneapolis, Minn.). The quantity and purity of nucleic acid preparations were estimated by measuring the absorbance of each sample (A260/A280). DNA preparations (10 μg/well) were loaded onto 1.2% agarose gels and visualized with ethidium bromide stain.

caspase-3 = experiment: Western blot for active caspase-3 (Example II); type: cell-based, human; details: 24 h; TPL 100 ng/ml, carboplatin 50
OCC1-SEAP tumor = experiment: Nude mouse tumor model, intraperitoneal OCC1-SEAP cells, plasma SEAP (Example II); type: in vivo
Source text: Athymic nude mice (NCR Nu/Nu) were either purchased from Taconic (Germantown, N.Y.) or bred in-house at Washington State University, Pullman, Wash. The OCC1-SEAP cells were collected in Hank's balanced salt solution and counted prior to injection. Treatments were initiated 7 to 10 days following an intraperitoneal inoculation of mice with 1×10^7 OCC1-SEAP cells, as described above, in Example I.
Stock solutions of carboplatin (paraplatin; Bristol-Myers Squibb, Princeton, N.J.) and TPL (Calbiochem, CA), were prepared in sterile filtered PBS and DMSO, respectively. Animals received intraperitoneal injections of either vehicle controlled (PBS containing 4% DMSO), or carboplatin (60 mg/kg), alone, or in combination with TPL (0-1.0 mg/kg), every other day for 5 days. Alternatively, TPL (0.15 mg/kg) was injected every day for 10 days. For these experiments, carboplatin was administered under the same schedule of every other day for 5 days. Some mice were also treated with 40 mg/kg of LY294002 every other day for 5 days, with an intraperitoneal injection in the presence of TPL and carboplatin. Blood samples were collected into capillary tubes from saphenous vein lancings at regular intervals during and following treatments. The capillary tubes were centrifuged and the plasma samples were frozen at −20° C., until the time of SEAP assay. The Washington State University Animal Care and Use Committee approved all procedures.
Blood plasma and cell culture medium samples were assayed for SEAP activity using the Great EscAPe SEAP fluorescence detection kit (Clontech Laboratories, Palo Alto, Calif.), as described above in Example I. Blood plasma samples were diluted 1:100, prior to the assay to bring values within the linear range of the standard curve. The intraassay and interassay coefficients of variation were 2.5% and 18.8%, respectively. In the case of the experiments in which mice were treated with a combination of TPL, LY294002 and carboplatin, there was some variation in the extent of tumor growth in the control mice. In order to better compare response to treatment across experiments, the SEAP assay data between experiments were normalized by dividing each data point by the overall mean of all SEAP measurements from that experiment and up, through day 18. The normalized data then reflect the relative tumor burden of each mouse, compared to others in the experimental group, and can be combined across experiments.

solid tumor types = details: TPL 0.15 mg/kg; cited from earlier work
[5] = TPL 0.15 mg/kg, nude mice; cited from earlier work
breast cancer xenografts = details: TPL 0.5 mg/kg; cited from earlier work
[6] = system: OCC1-SEAP intraperitoneal tumors; experiment: Nude mouse intraperitoneal OCC1-SEAP tumor model, plasma SEAP (Example I); type: in vivo, athymic nude mice
Protocol: Athymic nude mice (Nu/Nu; Charles River Laboratories, Wilmington, Mass.) weighing about 25 g were used for in vivo studies.
Three mice were injected intraperitoneally with 1×10^7 OCC1-SEAP-12 cells. The experimental treatments began after 1 week. […] Alternatively, four mice with well-developed tumors (2-4 weeks after injection) were treated with a high dose of carboplatin (60 mg/kg) three times over a period of 4 days. After death all visible intraperitoneal tumors were dissected out and weighed.
Blood samples were collected from saphenous vein lancings three times per week into heparinized capillary tubes. The capillary tubes were centrifuged and the plasma samples were frozen at −20° C. until the time of SEAP assay. Blood samples were taken for SEAP assay from the mice within 24 hours of death 2-3 weeks after intraperitoneal injection of OCC1-SEAP cells.
Blood plasma and cell culture medium samples were assayed for SEAP activity using the Great EscAPe SEAP fluorescence detection kit (Clontech Laboratories, Palo Alto, Calif.). SEAP is secreted at a constant rate by transfected tumor cells and distributed throughout the body or into the culture medium. SEAP is heat stable, so any endogenous alkaline phosphatase activity in blood plasma is destroyed by heat treatment of the samples (65° C. for 30 minutes) during the assay. The SEAP enzyme in each sample acts on the substrate 4-methylumbelliferyl phosphate during a 1 hour incubation at room temperature to produce a fluorescent product with excitation and emission peaks at 360 and 449 nm, respectively. A fluorimeter is then used to measure SEAP activity. The intra-assay and inter-assay coefficients of variation were 2.5% and 18.8%, respectively. Blood plasma samples were diluted 1:100 prior to the assay to bring values within the linear range of the standard curve.

## O=c1cc(N2CCOCC2)oc2c(-c3ccccc3)cccc12 [LY294002, 2-(4-morpholinyl)-8-phenyl-4H-1-benzopyran-4-one]
OCC1-SEAP-12 cells
  block of basal DNA synthesis: 50%
Akt
  Akt phosphorylation: blocked basal levels
Caspase 3
  time at which active 17 kDa caspase 3 appears: 72 h
[1]; 5 μM LY294002, 48 hr incubation
  reduction of cell number: 22%
[1]; 10 μM LY294002, 48 hr incubation
  reduction of cell number: 44%
[2]; physical appearance of mice after treatment
  abdominal swelling (FIG. 24): displayed abdominal swelling
[2]; single agents: LY294002 50 mg/kg, carboplatin 60 mg/kg
  tumor size vs vehicle control (FIG. 23): no significant difference
[3]
  effect on ovarian cancer tumor progression: negligible effects

## CC(C)[C@]12O[C@H]1[C@@H]1O[C@]13[C@]1(O[C@H]1C[C@H]1C4=C(CC[C@@]13C)C(=O)OC4)[C@@H]2O [TPL, Triptolide]
[4]
  decrease in cell survival (μg DNA/ml) compared to control cultures: approximately 40%
OCC1-SEAP cell cultures
  DNA laddering: evident
caspase-3
  induction of active caspase-3: robust induction
OCC1-SEAP tumor; TPL 0.5 mg/kg ip every other day over 5 days
  toxicity: no apparent toxicity
OCC1-SEAP tumor; TPL 1.0 mg/kg intraperitoneal
  mice expired within 24 hours: 2 of 3
OCC1-SEAP tumor; TPL 0.125, 0.25 or 0.5 mg/kg ip every other day over 5 days
  SEAP values vs vehicle control: not significant differences
OCC1-SEAP tumor; high dose, short duration: TPL 0.5 mg/kg, carboplatin 60 mg/kg every other day for 5 days
  tumor burden vs vehicle control (FIG. 11): no significant difference
OCC1-SEAP tumor; low dose, long duration: TPL 0.15 mg/kg every day for 10 days, carboplatin 60 mg/kg every other day for 5 days
  tumor burden as measured by SEAP levels vs vehicle control (FIG. 12): no significant difference
Solid tumor types
  inhibition of growth and metastasis of solid tumors: potent
[5]
  dose as share of the maximum tolerated dose: 60%
Breast cancer xenografts
  toxicity of dose: lethal

## N.N.[Cl][Pt][Cl] [cisplatin]
[6]; 3 or 10 mg/kg cisplatin every 48-72 h over a 2-week period, intraperitoneal
  tumor growth by plasma SEAP compared to vehicle controls: decreased tumor growth
[6]; cisplatin 3 vs 10 mg/kg
  difference in tumor growth between 3 and 10 mg/kg: No difference
